Source: patent publication US20030017618A1, “Chemical sensor and method of detecting chemical” (priority 2000, published 2003)

molecular target: T1, OBP 6C (Bos taurus, UniProt P07435); assay: quantity of immobilization of OBP 6C to NTA sensor chip (surface plasmon resonance, BiacoreX) in presence of odorant; assay type: binding, bovine; settings: Inventive Example 1, FIG. 12; odorant final concentration 10^−8 M; OBP solution 200 nM; 25° C.; comparison between odorants
T1 construct: successively elongated for finally synthesizing the whole length of the OBP gene; made in house; host or cells: E. coli BL21 (pET 28a(+), pETOBP-His)
T1 sequence (P07435 1-159): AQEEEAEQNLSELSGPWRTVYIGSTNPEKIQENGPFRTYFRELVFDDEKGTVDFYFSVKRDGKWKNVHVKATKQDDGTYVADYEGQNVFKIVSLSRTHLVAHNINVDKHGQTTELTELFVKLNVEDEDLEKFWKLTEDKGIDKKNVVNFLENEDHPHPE
Experimental: In preparation of the OBP 6C solution employed in the present Inventive Example, the OBP 6C prepared in the aforementioned manner was dissolved in an EB (eluent buffer) and diluted so that the concentration of the solution reached 200 nM.
In preparation of the odorant solutions employed in the present Inventive Example, on the other hand, the six types of odorants, i.e., cineol, linalyl acetate, pinene, geraniol, citronellal and oxidized citronellal were dissolved in ethanol solutions (EtOH) respectively, for preparing odorant solutions of 10^−5 M in concentration as to the respective odorants.
100 μl of the OBP solution having the concentration of 200 nM prepared in the aforementioned manner and 0.1 μl of each odorant solution having the concentration of 10^−5 M were mixed with each other, for preparing six types of sample solutions employed for measurement. In this case, the final concentration of the odorant in each sample solution is […].
An ethanol solution of the OBP 6C (final concentration of EtOH: 0.1%) containing no odorant was also prepared as a comparative sample (blank).
Each sample solution prepared in the aforementioned manner was left to stand at 25° C. for one hour.
Then, an NTA sensor chip (by Biacore) was set in BiacoreX (by Biacore) and thereafter the temperature was set to 25° C. for performing priming with an elution buffer shown in Table 4 described later. Thereafter stabilization of the base was confirmed and the elution buffer was continuously fed at a flow velocity of 20 μl/min. until the temperature reached the set value.
Further, a reproduced solution (30 μl) shown in Table 4 described later was added at a flow velocity of 10 μl/min. and excessive bivalent cation was removed. Then, an Ni solution (30 μl) shown in Table 4 described later was added at a flow velocity of 10 μl/min. for chelating Ni to NTA and immobilizing Ni.
Then, one of the sample solutions (10 μl) prepared in the above was added at a flow velocity of 1 μl/min. for 10 minutes, for immobilizing the OBP 6C onto the sensor chip. After completion of immobilization, the quantity of immobilization of the OBP 6C was measured. Thereafter the reproduced solution shown in Table 4 was employed for washing and removing the OBP 6C immobilized onto the sensor chip.
Operations similar to the above were performed also as to the other sample solutions, for measuring the quantities of immobilization of the OBP 6C as to all of the six types of sample solutions and the comparative (blank) sample solution.
In this case, the quantity of immobilization of the comparative sample (blank) containing no odorant was regarded as 100% for calculating relative values of the quantities of immobilization of the OBP 6C in the respective samples with reference thereto.
In the present Inventive Example, an OBP 6C solution was first prepared along with preparation of DMO solutions. In this case, the OBP 6C solution was prepared by a method similar to the preparation method in Inventive Example 1. In preparation of the DMO solutions, DMO was dissolved in ethanol (EtOH), for preparing solutions of 10^−3, 10^−4, 10^−5 and 10^−6 M in concentration respectively.
100 μl of the OBP 6C solution having the concentration of […] and 0.5 μl of each of the DMO solutions of 10^−3, 10^−4, 10^−5 and 10^−6 M, thereby preparing sample solutions having DMO final concentration values of 5×10^−6, 5×10^−7, 5×10^−8 and 5×10^−9 M respectively. Also in this case, an ethanol solution (final concentration of EtOH: 0.1%) of the OBP 6C containing no DMO was prepared as a comparative sample, similarly to the case of Inventive Example 1.
The respective sample solutions prepared in the aforementioned manner were left to stand at 25° C. for one hour.
After preparing the sample solutions in the aforementioned manner, the quantities of immobilization of the OBP 6C were measured as to the respective sample solutions by a method similar to that in Inventive Example 1.

Compound	affinity for the OBP 6C
CC(C)=CCCC(C)CC=O (centres unmarked) [citronellal]	higher affinity for the OBP 6C as compared with geraniol
oxidized citronellal	reduced in oxidized citronellal as compared with non-oxidized citronellal

same assay, conditions: Inventive Example 1, FIG. 12; odorant final concentration 10^−8 M; blank regarded as 100%; comparison between odorants

Compound	quantity of immobilization of the OBP 6C
CC(C)=CCCC(C)CC=O (centres unmarked) [citronellal]	reduced in citronellal as compared with geraniol
oxidized citronellal	increased in oxidized citronellal as compared with the non-oxidized case

same assay, conditions: Inventive Example 2, FIG. 13

Compound	DMO concentration that can be determined from the quantity of immobilization of the OBP 6C (quantitative limit)
CC(C)CCCC(C)CCO (centres unmarked)	at least 10^−8 M

same assay, conditions: Inventive Example 2, FIG. 13; DMO 5×10^−6 to 5×10^−9 M

Compound	DMO concentration range with constant correlation between concentration and quantity of immobilization of the OBP 6C
CC(C)CCCC(C)CCO (centres unmarked)	at least 5×10^−8 M

same assay, conditions: Inventive Example 2, FIG. 13; DMO concentration smaller than 10^−8 M; versus absence of the odorant

Compound	quantity of immobilization of the OBP 6C
CC(C)CCCC(C)CCO (centres unmarked)	equalized with the quantity of immobilization

molecular target: T2, bovine derivation odorant binding protein (OBP) (Bos taurus, UniProt P07435); assay: not given; settings: grade in words (high / moderate affinity); cited from earlier work
T2 sequence (P07435 1-159): T1 sequence (P07435 1-159)

Compound	affinity for the OBP
CC(C)CCCC(C)CCO (centres unmarked)	high affinity
CCCCC/C(C=O)=C/c1ccccc1 [amyl cinnamic aldehyde]	high affinity
CC/C(=C\CC1CC=C(C)C1(C)C)CO (centres unmarked) [bacdanol]	moderate affinity
O=C(c1ccccc1)c1ccccc1 [benzophenone]	high affinity
O=C(OCc1ccccc1)c1ccccc1 [benzyl benzoate]	high affinity
CC(C)CC(=O)OCc1ccccc1 [benzyl isovalerate]	high affinity
CC(C)CC(=O)OC1CC2CCC1(C)C2(C)C (centres unmarked) [bornyl isovalerate]	moderate affinity
CC1C(C)(C)C2=C(C(=O)CCC2)C1(C)C (centres unmarked) [cashmeran]	moderate affinity
CC/C=C\CC1=C(C)CCC1=O [cisjasmone]	moderate affinity
COC(C=C(C)CCC=C(C)C)OC [citral dimethyl acetal]	moderate affinity
CC(C)=CCCC(C)=CC#N [citralva]	high affinity
CC(C)=CCCC(C)CC=O (centres unmarked) [citronellal]	moderate affinity
CC(C)=CCCC(C)CCO (centres unmarked) [citronellol]	high affinity
CC(=O)OCCC(C)CCC=C(C)C (centres unmarked) [citronellyl acetate]	moderate affinity
CC(C)C/C=C(/C=O)c1ccccc1 [cocal]	moderate affinity
CCCCCCCCCC=O [decanal]	moderate affinity
CCOC(=O)c1ccccc1C(=O)OCC [diethylphthalate]	moderate affinity
C=CC(C)CCCC(C)(C)O (centres unmarked) [dihydromyrcenol]	high affinity
CC(C)CCCC(C)(C)O [dimethol]	moderate affinity
CCCCC[C@H]1C(=O)CC[C@H]1CC(=O)OC [epimethyl dihydrojasmonate]	moderate affinity

Compound	affinity for the OBP
C=CCc1ccc(O)c(OC)c1 [eugenol]	moderate affinity
CC1COCc2cc3c(cc21)C(C)(C)C(C)C3(C)C (centres unmarked) [galaxolide]	moderate affinity
CC(C)=CCC/C(C)=C/CO [geraniol]	moderate affinity
CC(C)=CCC/C(C)=C/CCC=O [geranyl acetaldehyde]	moderate affinity
CC(=O)OC/C=C(\C)CCC=C(C)C [geranyl acetate]	moderate affinity
CCCCCCC=O [heptanal]	moderate affinity
CCCCCCC(C=O)=Cc1ccccc1 [hexyl cinnamic aldehyde]	high affinity
CCCCCCOC(=O)C(C)CC (centres unmarked) [hexyl methylbutyrate]	moderate affinity
CCCCCC1COCCC1OC(C)=O (centres unmarked) [jasmal]	moderate affinity
C=CC(C)(O)CCC=C(C)C (centres unmarked) [linalool]	moderate affinity
CC(C)[C@@H]1CC[C@@H](C)CC1=O [menthone]	moderate affinity
CCCCCC1C(=O)CCC1CC(=O)OC (centres unmarked) [methyl dihydrojasmonate]	moderate affinity
CC(C)=CCCC1=CCC(C=O)CC1 (centres unmarked) [myrmac aldehyde]	moderate affinity
C/C=C(C)\C=C\C=C(C)C [neo-alloocimen]	moderate affinity
CC(C)=CCC/C(C)=C\CO [nerol]	moderate affinity
CCCCCCCCC=O [nonanal]	moderate affinity
CCCCCCCCOC(=O)C(C)C [octyl isobutyrate]	moderate affinity
CCCCCCCCOC(=O)CC(C)C [octyl isovalerate]	moderate affinity
OCCc1ccccc1 [phenetyl alcohol]	moderate affinity
CC1(C)C2CC=C(CCC=O)C1C2 (centres unmarked) [pinoacetaldehyde]	moderate affinity

Compound	affinity for the OBP
CC1=C(/C=C/C(C)=C/C=C/C(C)=C/C=O)C(C)(C)CCC1 [retinal]	moderate affinity
CC1=C(/C=C/C(C)=C/C=C/C(C)=C/CO)C(C)(C)CCC1 [retinol]	moderate affinity
Cc1c[nH]c2ccccc12 [skatole]	high affinity
CCCCCCCCCCCCCC=O [tetradecanal]	high affinity
CCCCCCCCCCC=O [undecanal]	high affinity
CC(=O)OC1CCC(C(C)(C)C)CC1 (centres unmarked) [vertenex]	moderate affinity
agrumea	moderate affinity
ambrettolide	moderate affinity
carbon	moderate affinity
coniferane	moderate affinity
dimethyl octane	moderate affinity
dimethyl octhene	moderate affinity
heptenal	moderate affinity
hexyl pyridine	high affinity
ionone	moderate affinity
jessemal	moderate affinity
musk 89	high affinity
pinylisobutyl aldehyde	moderate affinity
